Several values for one entry are separate records, joined by “and”; a condition that tells them apart may be missing. Identical values can stand only once.
What was measured:
Format in all cases: in vivo, albino rats
[1] = test system: gastric ulcers induced by aspirin, ethanol, stress and pylorus ligation; assay: Antigastric ulcer screening by four different models (statements in words); details: summary statement
Source text: The compounds taken under study for antigastric ulcer screening by four different models were selected using experimental albino rats: • 1. Aspirin induced gastric ulceration • 2. Pylorus ligated gastric ulceration • 3. Ethanol induced gastric ulceration • 4. Stress induced gastric ulceration
The commercially available drug ranitidine (sigma), Omeprazole (sigma) and sucralfate (Merck) were used as reference standard in experimental models. The Tween-80 (SD fine chemicals) was used as vehicle for the administration of the drug, which is used as control.

[2] = test system: gastric ulceration in cold restraint rats; assay: Cold restraint (stress) induced ulcers; design: Ulcer index Mean(SE): scale not given here; details: rats, 4° C. for 2 hours
In short: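 Albino rats, fasted 48 h with free water, dosed orally with compound at 25 mg/kg or at 50, 25, 15, 10 and 5 mg/kg in 1% Tween 80 vehicle. Water removed 1 h before restraint at 4° C for 2 h. Sacrificed 2 h after stress; stomachs opened along greater curvature and scored as mean ulcer index.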

[3] = test system: ethanol induced gastric ulcers; assay: Ethanol induced ulcers; details: rats, ethanol challenge; for Acidity Total mEg / Gastric content / pH: 4 hours after pylorus ligation
In short: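 Rats in groups of 6, fasted 48 h, given Tween 80 (1%) vehicle, reference drugs, or test compounds at 25 mg/kg; lesions induced 1 h after ethanol challenge. Pylorus ligated under ether; 4 h later gastric contents centrifuged and total acid titrated with 0.01N NaOH.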

COC(=O)C1OC(Oc2cc3oc(-c4ccccc4)cc(=O)c3cc2OC)C(O)C(O)C1O (stereo not drawn) [OA-5, 3,4,5-trihydroxy-6-(6-methoxy-4-oxo-2-phenyl-4-H-chromen-7-yoloxy) tetrahydro-pyran-2-carboxylicacid methyl ester]
antiulcer activity (in words) ([1]; listed as Oroxyloside methyl ester): excellent potent molecule | antiulcer activity (in words) ([1]; listed as oroxyloside methyl ester): potent activity | Inhibition % ([2]; 5 mg/kg per orally): 31.55% | Ulcer index Mean(SE) ([2]; 5 mg/kg per orally): 27.5 | Inhibition % ([2]; 10 mg/kg per orally): 41.92% | Ulcer index Mean(SE) ([2]; 10 mg/kg per orally): 23.33 | Inhibition % ([2]; 15 mg/kg per orally): 50.14% | Ulcer index Mean(SE) ([2]; 15 mg/kg per orally): 19.99 | Inhibition % ([2]; 25 mg/kg per orally): 75.45% | Ulcer index Mean(SE) ([2]; 25 mg/kg per orally, 25 mg/kg): 9.997 and 9.99 | Inhibition % ([2]; 50 mg/kg per orally): 78.22% | Ulcer index Mean(SE) ([2]; 50 mg/kg per orally): 8.75 | Inhibition % ([3]; 5 mg/kg): 30.01% | Ulcer index Mean(SE) ([3]; 5 mg/kg): 46.66 (±0.80) | Acidity Total mEg ([3]; 5 mg/kg): 42.66 (±3.95) m Eg | Gastric content ([3]; 5 mg/kg): 4.0 (±0.45) | pH ([3]; 5 mg/kg): 3.5 (±0.40) | Inhibition % ([3]; 10 mg/kg): 35.00% | Ulcer index Mean(SE) ([3]; 10 mg/kg): 43.33 (±5.40) | Acidity Total mEg ([3]; 10 mg/kg): 31.33 (±1.36) m Eg | Gastric content ([3]; 10 mg/kg): 4.2 (±0.07) | Inhibition % ([3]; 15 mg/kg): 60.61% | Ulcer index Mean(SE) ([3]; 15 mg/kg): 26.66 (±4.71) | Acidity Total mEg ([3]; 15 mg/kg): 29.66 (±1.36) m Eg | Gastric content ([3]; 15 mg/kg): 4.0 (±0.82) | pH ([3]; 15 mg/kg): 4.5 (±0.13) | Inhibition % ([3]; 25 mg/kg): 82.50% | Ulcer index Mean(SE) ([3]; 25 mg/kg): 11.66 (±4.47) | Acidity Total mEg ([3]; 25 mg/kg): 12.40 (±2.30) mEg | Gastric content ([3]; 25 mg/kg): 5.5 (±0.30) | pH ([3]; 25 mg/kg): 6.81 (±0.26) | Inhibition % ([3]; 50 mg/kg): 85.00% | Ulcer index Mean(SE) ([3]; 50 mg/kg): 10.00 (±6.23) | Acidity Total mEg ([3]; 50 mg/kg): 18.25 (±7.10) mEg | Gastric content ([3]; 50 mg/kg): 7.4 (±0.72) | pH ([3]; 50 mg/kg): 4.95 (±0.43)

Reference: US7855200B2, “Method for treatment of gastric ulcers and ulcers induced by aspirin” (Council of Scientific and Industrial Research, priority 2006, dated 2010)
